{"source": "patent US20200069691A1", "about": "“HETEROCYCLIC COMPOUNDS AS HIV PROTEASE INHIBITORS” (Merck Sharp & Dohme Corp., priority 2016, published 2020)", "data": [{"molecular_target": "T1, wild-type HIV-1 protease (Human immunodeficiency virus type 1 group M subtype B, UniProt P04585)", "T1 construct": "Escherichia coli expressed wild-type HIV-1 protease protein", "assay": "Assay for Inhibition of Microbial Expressed HIV Protease (peptide substrate cleavage, LC-MS/MS readout)", "format": "biochemical", "conditions": "E. coli expressed wild-type HIV-1 protease, mean of at least two independent experiments, read-out: HIV Pr Enzyme HIV1 PR IC50", "outline": "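Cleavage of Val-Ser-Gln-Asn-(β-naphthyl)Ala-Pro-Ile-Val (400 μM) by recombinant HIV-1 protease ([…]) ran 1 h at 30 °C after a 30 min room-temperature inhibitor preincubation in 50 mM sodium acetate pH 5.5. Product peak areas by LC-MS/MS gave inhibition; values average at least two independent runs.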", "units": {"IC50": "nM"}, "values": [{"smiles": "CC(C)CC[C@]1(c2ccccc2)NC(=N)N([C@H](C)c2ccc(C(F)(F)F)c(C(=O)N3Cc4nccnc4C3)c2)C1=O", "note": "[Compound 141, (5R)-3-{(1R)-1-[3-(5,7-dihydro-6H-pyrrolo[3,4-b]pyrazin-6-ylcarbonyl)-4-(trifluoromethyl)phenyl]ethyl}-2-imino-5-(3-methylbutyl)-5-phenylimidazolidin-4-one]", "IC50": 3.04}, {"smiles": "CC(C)CC1(c2ccccc2)NC(=N)N(Cc2ccc(C(F)(F)F)c(C(=O)N3Cc4nccnc4C3)c2)C1=O", "note": "(stereo not shown) [Compound 142, 3-[3-(5,7-dihydro-6H-pyrrolo[3,4-b]pyrazin-6-ylcarbonyl)-4-(trifluoromethyl)benzyl]-2-imino-5-(2-methylpropyl)-5-phenylimidazolidin-4-one]", "IC50": 3.23}, {"smiles": "N=C1NC(c2ccccc2)(c2ccccc2)C(=O)N1Cc1ccc(C(F)(F)F)c(C(=O)N2Cc3nccnc3C2)c1", "note": "[Compound 143, 3-[3-(5,7-dihydro-6H-pyrrolo[3,4-b]pyrazin-6-ylcarbonyl)-4-(trifluoromethyl)benzyl]-2-imino-5,5-diphenylimidazolidin-4-one]", "IC50": 3.43}, {"smiles": "CC(C)CCC1(c2ccc(F)cc2)NC(=N)N(Cc2ccc(C(F)(F)F)c(C(=O)N3Cc4cncnc4C3)c2)C1=O", "note": "(stereo not shown) [Compound 144, 3-[3-(5,7-dihydro-6H-pyrrolo[3,4-d]pyrimidin-6-ylcarbonyl)-4-(trifluoromethyl)benzyl]-5-(4-fluorophenyl)-2-imino-5-(3-methylbutyl)imidazolidin-4-one]", "IC50": 3.73}, {"smiles": "N=C1NC(c2ccccc2)(c2ccccc2)C(=O)N1Cc1ccc(C(F)(F)F)c(C(=O)N2Cc3cncnc3C2)c1", "note": "[Compound 145, 3-[3-(5,7-dihydro-6H-pyrrolo[3,4-d]pyrimidin-6-ylcarbonyl)-4-(trifluoromethyl)benzyl]-2-imino-5,5-diphenylimidazolidin-4-one]", "IC50": 4.03}, {"smiles": "CC(C)CCC1(c2ccc(F)cc2)NC(=N)N(Cc2ccc(C(F)(F)F)c(C(=O)N3Cc4nccnc4C3)c2)C1=O", "note": "(stereo not shown) [Compound 146, 3-[3-(5,7-dihydro-6H-pyrrolo[3,4-b]pyrazin-6-ylcarbonyl)-4-(trifluoromethyl)benzyl]-5-(4-fluorophenyl)-2-imino-5-(3-methylbutyl)imidazolidin-4-one]", "IC50": 4.07}, {"smiles": "CC(C)C[C@]1(c2ccccc2)NC(=N)N([C@H](C)c2ccc(C(F)(F)F)c(C(=O)N3Cc4nccnc4C3)c2)C1=O", "note": "[Compound 147, (5R)-3-{(1R)-1-[3-(5,7-dihydro-6H-pyrrolo[3,4-b]pyrazin-6-ylcarbonyl)-4-(trifluoromethyl)phenyl]ethyl}-2-imino-5-(2-methylpropyl)-5-phenylimidazolidin-4-one]", "IC50": 4.75}, {"smiles": "CC(C)CCC1(c2ccccc2)NC(=N)N(Cc2ccc(C(F)(F)F)c(C(=O)N3Cc4cnc(C#N)nc4C3)c2)C1=O", "note": "(stereo not shown) [Compound 148, 6-{[5-{[2-imino-4-(3-methylbutyl)-5-oxo-4-phenylimidazolidin-1-yl]methyl}-2-(trifluoromethyl)phenyl]carbonyl}-6,7-dihydro-5H-pyrrolo[3,4-d]pyrimidine-2-carbonitrile]", "IC50": 5.21}, {"smiles": "CC(C)C[C@]1(c2ccccc2)NC(=N)N(Cc2ccc(C(F)(F)F)c(C(=O)N3Cc4nccnc4C3)c2)C1=O", "note": "[Compound 149, (5R)-3-[3-(5,7-dihydro-6H-pyrrolo[3,4-b]pyrazin-6-ylcarbonyl)-4-(trifluoromethyl)-benzyl]-2-imino-5-(2-methylpropyl)-5-phenyl-imidazolidin-4-one]", "IC50": 5.24}, {"smiles": "CC(C)CC1(c2ccccc2)NC(=N)N(Cc2ccc(C(F)(F)F)c(C(=O)N3Cc4cncnc4C3)c2)C1=O", "note": "(stereo not shown) [Compound 150, 3-[3-(5,7-dihydro-6H-pyrrolo[3,4-d]pyrimidin-6-ylcarbonyl)-4-(trifluoromethyl)benzyl]-2-imino-5-(2-methylpropyl)-5-phenylimidazolidin-4-one]", "IC50": 5.49}, {"smiles": "CC(C)CCC1(c2ccccc2)NC(=N)N(Cc2ccc(C(F)(F)F)c(C(=O)N3Cc4nccnc4C3)c2)C1=O", "note": "(stereo not shown) [Compound 151, 3-[3-(5,7-dihydro-6H-pyrrolo[3,4-b]pyrazin-6-ylcarbonyl)-4-(trifluoromethyl)benzyl]-2-imino-5-(3-methylbutyl)-5-phenylimidazolidin-4-one]", "IC50": 6.62}, {"smiles": "CC(C)CCC1(c2ccccc2)NC(=N)N(Cc2ccc(C(F)(F)F)c(C(=O)N3Cc4cncnc4C3)c2)C1=O", "note": "(stereo not shown) [Compound 152, 3-[3-(5,7-dihydro-6H-pyrrolo[3,4-d]pyrimidin-6-ylcarbonyl)-4-(trifluoromethyl)benzyl]-2-imino-5-(3-methylbutyl)-5-phenylimidazolidin-4-one]", "IC50": 7.8}, {"smiles": "CN1CCN(C(=O)c2cc(CN3C(=N)NC(c4ccccc4)(c4ccccc4)C3=O)ccc2C(F)(F)F)CC1=O", "note": "[Compound 153, 4-({5-[(2-imino-5-oxo-4,4-diphenylimidazolidin-1-yl)methyl]-2-(trifluoromethyl)phenyl}-carbonyl)-1-methylpiperazin-2-one]", "IC50": 10.1}, {"smiles": "COc1ccc2c(c1)CCN(C(=O)c1cc(CN3C(=N)NC(CCC(C)C)(c4ccccc4)C3=O)ccc1C(F)(F)F)CC2", "note": "(stereo not shown) [Compound 154, 2-imino-3-{3-[(7-methoxy-1,2,4,5-tetrahydro-3H-3-benzazepin-3-yl)carbonyl]-4-(trifluoromethyl)-benzyl}-5-(3-methylbutyl)-5-phenylimidazolidin-4-one]", "IC50": 10.2}, {"smiles": "CC(C)CCC1(c2ccccc2)NC(=N)N(Cc2ccc(C(F)(F)F)c(C(=O)N3CCC(n4c(=O)[nH]c5ccccc54)CC3)c2)C1=O", "note": "(stereo not shown) [Compound 155, 1-(1-{[5-{[2-imino-4-(3-methylbutyl)-5-oxo-4-phenyl-imidazolidin-1-yl]methyl}-2-(trifluoromethyl)phenyl]carbonyl}piperidin-4-yl)-1,3-dihydro-2H-benzimidazol-2-one]", "IC50": 11.3}, {"smiles": "CC(C)CC1(c2ccccc2)NC(=N)N(Cc2ccc(C(F)(F)F)c(C(=O)N3CCN(C)C(=O)C3)c2)C1=O", "note": "(stereo not shown) [Compound 156, 4-{[5-{[2-imino-4-(2-methylpropyl)-5-oxo-4-phenylimidazolidin-1-yl]methyl}-2-(trifluoromethyl)phenyl]carbonyl}-1-methylpiperazin-2-one]", "IC50": 13.5}, {"smiles": "CN1CCN(C(=O)c2cc(CN3C(=N)NC(c4ccc(F)cc4)(c4ccc(F)cc4)C3=O)ccc2C(F)(F)F)CC1=O", "note": "[Compound 157, 4-{[5-{[4,4-bis(4-fluorophenyl)-2-imino-5-oxoimidazolidin-1-yl]methyl}-2-(trifluoromethyl)phenyl]carbonyl}-1-methylpiperazin-2-one]", "IC50": 14.1}, {"smiles": "CC(C)CCC1(c2ccc(F)cc2)NC(=N)N(Cc2ccc(C(F)(F)F)c(C(=O)N3Cc4nc(-c5ccccc5)oc4C3)c2)C1=O", "note": "(stereo not shown) [Compound 158, 5-(4-fluorophenyl)-2-imino-5-(3-methylbutyl)-3-{3-[(2-phenyl-4,6-dihydro-5H-pyrrolo[3,4-d][1,3]oxazol-5-yl)carbonyl]-4-(trifluoromethyl)benzyl} imidazolidin-4-one]", "IC50": 15.8}, {"smiles": "CC(C)CCC1(c2ccc(F)cc2)NC(=N)N(Cc2ccc(C(F)(F)F)c(C(=O)N3C[C@@H]4C(=O)NC(=O)[C@]4(c4ccccc4)C3)c2)C1=O", "note": "(stereo partly drawn) [Compound 159, (3aR,6aR)-5-{[5-{[4-(4-fluorophenyl)-2-imino-4-(3-methylbutyl)-5-oxoimidazolidin-1-yl]methyl}-2-(trifluoromethyl)-phenyl]carbonyl}-3a-phenyltetrahydropyrrolo [3,4-c]pyrrole-1,3 (2H,3aH)-dione]", "IC50": 15.9}]}]}
